According to a melting point compilation (Tetko et al.; mined from patent text by program, amines drawn as free bases though some values may be those of a salt):

Structure (SMILES) | melting point [°C]
COc1cncnc1N1CCN(CCCc2c[nH]c3ccc(Nc4cc(=O)c4=O)cc23)CC1C (stereo not given) | 191 to 193
CS(=O)(=O)c1ccc(C(CC2CCCC2)C(=O)Nc2ccc(Br)cn2)cc1Br (stereo not given) | 83 to 86
C[C@]1(CN2CCC(Nc3ccc(OC(F)(F)F)cc3)CC2)Cn2cc([N+](=O)[O-])nc2O1 | 108 to 109
CCOC(=O)c1cn(Cc2ccc(OCc3nc(-c4ccccc4)oc3C)cc2)nc1O | 152 to 153
O=C1CCCCN1C1=CC(CF)(CF)Oc2ccc(C(F)(F)F)cc21 | 166 to 168
OCCCc1ccc2oc(Cc3ccc4ccccc4c3)nc2c1 | 102 to 103
COc1cc2c(cc1OCc1ccccc1)[C@H](CO)OC2=O | 126 to 128
CS(=O)(=O)Nc1cc(N2C(=O)C3=C(CCCC3)C2=O)c(F)cc1C#N | 113
CCOC(=O)c1cc2cc(Oc3ccc(S(C)(=O)=O)cc3)cc(OCc3nccn3C)c2[nH]1 | 91 to 92
Cc1cc(C)c(C(=NO)C(F)(F)F)c(C)c1 | 119 to 125
C=C(CCCCCCCCCCCCCCCCCC)C(=O)OC | 48 to 50
Cc1noc(NS(=O)(=O)c2ccc(NC(=O)CN)cc2-c2ccc(CC(C)C)cc2)c1C | 135 to 138
O=Cc1ccc(-c2ccc(-c3ccccc3)s2)s1 | 119 to 121
Cc1cc(NC(=S)NC(=O)c2ccccc2Cl)ccc1-n1cccc1 | 134 to 136
CC(C)Oc1ccc(-c2nc3c4ccccc4ccc3n2C)cc1 | 144 to 145
CCCCC1(CCCC)NC(c2nc(-c3ccccc3)cs2)Cc2c1[nH]c1ccccc21 (stereo not given) | 134 to 136
Cc1ccc(S(N)(=O)=O)cc1NC(=O)c1cnn2c(C(F)(F)F)cc(-c3ccc(C(F)(F)F)cc3)nc12 | 310
COc1cccc(Cc2cnc(N)nc2N)c1 | 221 to 223
COCCOc1c(C)cc(C#CC2(O)CN3CCC2CC3)cc1C (stereo not given) | 120
CCCCCCCCOC(=O)COc1cc(F)ccc1C(=O)NCc1cccc([N+](=O)[O-])c1 | 72 to 74
Cc1ccn2c(CN(C)C)c(-c3ccc4sc(=O)n(C)c4c3)nc2c1 | 167 to 168
C#CCCCCNC(=O)C(F)(F)F | 41 to 42.5
CCC#CC(C)(C)NC(=O)C(Br)CC (stereo not given) | 53 to 55
CCCCCCCCCCNC(=S)Nc1ccc(NNC=O)cc1 | 150 to 152
O=C(CBr)c1cc2c(Cl)cccc2s1 | 116 to 118

Structure (SMILES) | melting point [°C]
COc1ccc(O)c(C(=O)c2ccc(O)cc2)c1 | 144 to 148
NCc1c(Nc2ccccc2)cccc1Oc1ccccc1 | 113 to 116
CCCN(CCC)C(=O)n1cnc(S(=O)(=O)CC)n1 | 44 to 45
CCc1nc(/C=C/c2cn(-c3ccccc3)nc2OCc2ccc(OCc3nc(-c4cccc(CC(=O)O)c4)oc3C)c(OC)c2)cs1 | 154 to 155
CCCCCCCCCCCCc1nnn(C(C(=O)Nc2c(C(C)C)cccc2C(C)C)c2ccccc2)n1 (stereo not given) | 93 to 95
Cc1cc2cc(C(=O)O)ccc2s1 | 220 to 222
COCC1(C)Oc2ccc(C#N)cc2C(n2ccccc2=O)C1O (stereo not given) | 210 to 212
CS(=O)(=O)c1cccc(CNC(=O)c2nc3scc(COCc4ccc(C(=O)O)cc4)c3c(=O)[nH]2)c1 | 265 to 267
O=NN(CCCl)C(=O)NC1OC(CO)C(O)C1O (stereo not given) | 69 to 71
COc1nsc(OCCC#CI)c1C#N | 71 to 73
Cc1ccc(C2CC(C(F)(F)F)=NN2c2ccc(S(N)(=O)=O)cc2)cc1 (stereo not given) | 140 to 143
COc1cc2cc(N)cnc2cc1F | 153
COC[C@@H](C)N1Cc2c(ccc(Cl)c2NC(=O)c2ccc(F)c(C(F)(F)F)c2)C1=O | 131 to 132
CCCCCCCCCCCCCCC(=O)CC(=O)OC | 51 to 53
O=C(O)CC1Cc2ccccc2NC1=O (stereo not given) | 145 to 146
Cc1cc(C)c(/C=C/C=O)c(Br)c1 | 99 to 103
O=C1N(CCN2CCCC2)CCN1c1ccc(-c2nnc(CSCCOc3ccccc3)o2)cc1 | 125 to 129
COc1cc(OC)c2c(=O)[nH]c(-c3ccc(OCCN4CCCC4)cc3)nc2c1 | 226 to 227
O=C1N(CO)c2cccc(Cl)c2C1(CO)c1cc2c(cc1O)OCO2 (stereo not given) | > 210
CC12CCC(C1)C1(C)Oc3ccc(C(=O)c4ccc(C=CC(=O)O)cc4)cc3C21C (stereo not given) | 242 to 243
O=C(Oc1ccc(F)cc1)c1cc(C(F)(F)F)cc(C(F)(F)F)c1 | 60 to 61
OCC(CCc1ccc(Cl)cc1)Cn1cncn1 (stereo not given) | 40 to 45
CCCNC(=O)N=c1ccn(-c2ccccc2)nc1 | 156 to 157
CC(C)(C)c1ccc(C(O)CCCN2CCC(C(O)c3nc4ccccc4n3Cc3ccc(F)cc3)CC2)cc1 (stereo not given) | 87 to 90
O=C(O)CCCCCCCCCCCCCCCOCc1ccccc1 | 56 to 59

Structure (SMILES) | melting point [°C]
N#CCNC(=O)c1ccnc(Cl)c1 | 131 to 132
CC(=O)Oc1ccc(-c2ccc(C(C)O)cc2)cc1 (stereo not given) | 142 to 144
CC(=O)C1=CCC2C3CCC4CC(O)CCC4(C)C3CC(O)C12C (stereo not given) | 203 to 205
CCCc1ccc(-c2cc(NC(=O)C3Cc4ccccc4C3)n[nH]2)cc1 | 211 to 213
Cc1cc(-c2csc(N)n2)on1 | 208 to 210
CNC(=O)N(C)c1nnc(SCc2ccccc2)s1 | 139 to 142
CCCCCC(=O)Nc1ccnc(-c2ccncc2)n1 | 119 to 120
COc1cc2c(cc1OC)N(C)C(=O)CN=C2c1cccc(C)c1 | 119 to 121
OC1CCN(C(c2ccccc2)(c2ccccc2)c2ccccc2)CC1 | 157 to 158
COC(=O)[C@@H]1C[C@H](N)C(=O)[C@H]2[C@@]1(C)CC[C@H]1C(=O)O[C@H](c3ccoc3)C[C@]21C | 237 to 240
CN1Cc2nc[nH]c2C[C@@H]1C(=O)c1ccccc1 | 98
CS(=O)(=O)c1c(Cl)ccc(C(=O)O)c1Cl | 158
OC1(c2ccc(F)cc2)CCN(Cc2ccnc(-c3ccccc3)c2)CC1 | 149 to 151
N#CC(c1ccccc1)c1nc(-c2ccncc2)cs1 (stereo not given) | 110 to 111
CSc1ccc(C=CC(=O)c2ccc([N+](=O)[O-])cc2)cc1 | 160
COc1cc2oc(=O)c(CCN3CCN(c4ccccc4)CC3)c(C)c2cc1OC | 169 to 172
Cc1cc(NC(=O)NC(=O)c2c(Cl)cccc2Cl)ncc1-c1ccccc1 | 210 to 214
Cc1cccc(N2CC(=O)NC(=O)N2)c1 | 245 to 247
CCCCOC(=O)c1cnc(C(=O)O)c(OC)c1 | 96 to 98
COCC1CCCN1S(=O)(=O)c1ccc2c(c1)C(=O)C1=NCC3(CCCC3)CN12 (stereo not given) | 171 to 172
CCOC(=S)c1csc2nc(Cc3ccccc3)cn12 | 83 to 84
COc1ccc(C2(C#Cc3cccc(NC(=O)C(F)(F)F)c3)CCCC(=O)C2)cc1OC1CCCC1 (stereo not given) | 63 to 65
O=C(O)c1ccnc(-c2cccc3cc(Cc4cccc(C(F)(F)F)c4)sc23)c1 | 231 to 232
COc1c(C)c(C)c2c(c1C)C(c1ccc(C=O)cc1)C(C)(C)O2 (stereo not given) | 108 to 109
CN1CCN(c2ccc(C(=O)NC3(C(=O)NCC#N)CCCCC3)cc2)CC1 | 218 to 220
